In article PMC10058949, “Effect of N-Terminal Peptide Modifications on In Vitro and In Vivo Properties of ^177Lu-Labeled Peptide Analogs Targeting CCK2R” (Pharmaceutics, 2023):
Where two headings read alike, the source gives them in different places.

Tests used:
[1] = Stability of 177Lu-labeled peptides in fresh human serum; type: in vitro ADME; settings: 37 °C, 24 h incubation
Description: (§1) The stability studies with the ^177Lu-labeled peptide analogs were carried out at a concentration of 0.5 nmol peptide/mL in fresh human serum (n = 2) for up to 24 h. A mixture of 0.05 nmol/mL of the radiolabeled peptides in PBS and octanol (1/1, v/v) was used to evaluate the octanol/PBS distribution coefficient (logD7.4; n = 8). To determine the protein binding in human serum by Sephadex G-50 size-exclusion chromatography (GE Healthcare Illustra, Little Chalfont, UK), a 25 µL serum sample was used for different time points after incubation. All steps were performed according to previously published protocols.

[2] = Octanol/PBS distribution coefficient (logD7.4); type: physicochemical; settings: octanol/PBS 1/1, pH 7.4; read-out: logD (octanol/PBS)
Description: as §1

[3] = Protein binding in human serum by Sephadex G-50 size-exclusion chromatography; type: in vitro ADME; settings: human serum; time point not given
Description: as §1

[4] = Biodistribution 4 h p.i. in A431-CCK2R/A431-mock xenografted BALB/c nude mice; type: in vivo; settings: female, BALB/c nude, mouse, iv, 20 pmol, total radioactivity, 4 h p.i., 20 pmol; for tissue uptake at 4 h: ~0.5 MBq, n=5
Description: (§2) Then, after 7–11 days, when visible tumor xenografts were formed, groups of 5 mice were injected intravenously via a lateral tail vein with ~0.5 MBq of radiolabeled peptide, corresponding to 20 pmol of peptide, in a total volume of ~150 µL in PBS/0.5% BSA. Using an additional mouse per group, a blocking study was performed by co-injecting a 1000-fold molar excess of the respective peptide analog (20 nmol) together with the radiolabeled peptide. For quantification, a 1:1, 1:10 and 1:50 standard was prepared using aliquots of the injection solution mixed with PBS/0.5% BSA. Mice were euthanized by cervical dislocation 4 h after injection. Subsequently, a blood sample was collected, and different tissues were dissected. All samples, as well as the rest of the body were weighed, and the activity measured in the γ-counter together with the standard. Results were expressed as percentage of injected activity per gram of tissue (%IA/g).

[5] = test system: A431-CCK2R/A431-mock xenografted BALB/c nude mice; experiment: as above; type: in vivo; settings: 4 h p.i., ~0.5 MBq, 20 pmol, n=5
Description: as §2

[6] = Biodistribution blocking experiment with 1000-fold excess of non-radiolabeled peptide; type: in vivo, mice; settings: female, BALB/c nude, mouse, iv, total radioactivity, 4 h p.i., 1000-fold excess of non-radiolabeled peptide, n=1
Description: as §2

[7] = test system: A431-CCK2R/A431-mock xenografted BALB/c nude mice; experiment: as above; type: in vivo; settings: 4 h p.i., 1000-fold excess of non-radiolabeled peptide, n=1
Description: as §2

[8] = BALB/c mice, cited from earlier work

## CCCC[C@@H](C(=O)N[C@@H](CC(=O)O)C(=O)N[C@@H](Cc1cccc2ccccc12)C(N)=O)N(C)C(=O)[C@H](Cc1c[nH]c2ccccc12)NC(=O)CNC(=O)[C@H](Cc1ccc(O)cc1)NC(=O)[C@H](C)NC(=O)[C@@H](CCC(=O)O)NC(=O)CN1CCN(CC(=O)O)CCN(CC(=O)O)CCN(CC(=O)O)CC1 [[^177Lu]Lu-DOTA-MGS5, metal not drawn, reference compound]
[1]
  intact radiopeptide in human serum: 96.9 ± 0.3%
[2]
  logD: -2.25 ± 0.13
[3]
  fraction unbound: 0.667
[4]; A431-CCK2R tumor xenograft, read-out: uptake in A431-CCK2R xenografts
  tissue uptake at 4 h: 22.8 ± 4.67 %ID/g
[4]; A431-mock tumor xenograft, read-out: uptake in A431-mock xenografts
  tissue uptake at 4 h: 0.19 ± 0.03 %ID/g
[4]; blood, read-out: uptake in blood
  tissue uptake at 4 h: 0.11 ± 0.11 %ID/g
[4]; femur, read-out: uptake in femur
  tissue uptake at 4 h: 0.36 ± 0.35 %ID/g
[4]; heart, read-out: uptake in heart
  tissue uptake at 4 h: 0.1 ± 0.06 %ID/g
[4]; intestine, read-out: uptake in intestine
  tissue uptake at 4 h: 1.02 ± 0.23 %ID/g
[4]; kidneys, read-out: uptake in kidneys
  tissue uptake at 4 h: 3.45 ± 0.91 %ID/g
[4]; liver, read-out: uptake in liver
  tissue uptake at 4 h: 1.02 ± 0.8 %ID/g
[4]; lung, read-out: uptake in lung
  tissue uptake at 4 h: 0.17 ± 0.14 %ID/g
[4]; muscle, read-out: uptake in muscle
  tissue uptake at 4 h: 0.1 ± 0.02 %ID/g
[4]; pancreas, read-out: uptake in pancreas
  tissue uptake at 4 h: 1.91 ± 0.91 %ID/g
[4]; spleen, read-out: uptake in spleen
  tissue uptake at 4 h: 0.27 ± 0.18 %ID/g
[4]; stomach, read-out: uptake in stomach
  tissue uptake at 4 h: 6.26 ± 4.28 %ID/g
[4]; tumor / kidney, read-out: tumor-to-kidney ratio
  tissue to tissue ratio at 4 h: 7
[5]
  uptake in liver: 1.02 ± 0.23 % IA/g
[6]; A431-CCK2R tumor xenograft, read-out: uptake in A431-CCK2R xenograft, blocking
  tissue uptake at 4 h: 0.54 %ID/g
[6]; A431-mock tumor xenograft, read-out: uptake in A431-mock xenograft, blocking
  tissue uptake at 4 h: 0.34 %ID/g
[6]; blood, read-out: uptake in blood, blocking
  tissue uptake at 4 h: 0.09 %ID/g
[6]; femur, read-out: uptake in femur, blocking
  tissue uptake at 4 h: 0.04 %ID/g
[6]; heart, read-out: uptake in heart, blocking
  tissue uptake at 4 h: 0.08 %ID/g
[6]; lung, read-out: uptake in lung, blocking
  tissue uptake at 4 h: 0.08 %ID/g
[6]; pancreas, read-out: uptake in pancreas, blocking
  tissue uptake at 4 h: 0.11 %ID/g
[6]; stomach, read-out: uptake in stomach, blocking
  tissue uptake at 4 h: 0.09 %ID/g
[7]
  uptake in intestine, blocking: 0.79 % IA/g
  uptake in kidneys, blocking: 2.95 % IA/g
  uptake in liver, blocking: 0.54 % IA/g
  uptake in muscle, blocking: 0.03 % IA/g
  uptake in spleen, blocking: 0.16 % IA/g
[8]; 10 min after intravenous injection
  intact radiopeptide in blood: 86%
[8]; 30 min p.i.
  intact radiopeptide in blood: 77%
[8]; 1 h after intravenous injection
  intact radiopeptide in blood: 70%
